According to US20110070232A1, “Combination Therapy with an Antitumor Alkaloid” (Pharma Mar, S.A., priority 2008, published 2011):
Read-outs that look alike come from different tables or passages of the source.

Key:
Type in all cases: in vivo, mice
Hs746T tumors = settings: for % Inhibition: mg/kg/day: PM00104 0.90 IV, 5-FU 50 at DPI 15 and 100 at DPI 22 & 29 IP
Description: Female athymic nude mice (Harlan Sprague Dawley, Madison, Wis.) were utilized for all experiments. Animals were housed in ventilated rack caging with food and water ad libitum. The mice were acclimated for at least 5 days prior to tumor implantation with a tumor cell suspension.
The tumor model used in these studies was Hs746T cell line, which was obtained from the ATCC (Manassas, Va.).
Treatments were initiated on DPI 15.
5-FU was provided as a solution which was further diluted with water for injection.
(§1) Tumor size measurements were recorded twice weekly from the treatment initiation until the termination of the study.
(§2) Mean, standard deviation and standard error of the mean were determined for tumor volume for all animal groups at all assessments. Student's t test was performed on tumor volumes at each measurement day, including at the end of the study, to determine whether there were any statistically significant differences between combination treatment groups and single monotherapy treatment groups.

BxPC-3 tumors = settings: mg/kg/day: PM00104 0.90 IV
Description: Female CB17.SCID mice (Charles River Lab.) were utilized for all experiments. Animals were housed in ventilated rack caging with food and water ad libitum. The mice were acclimated for at least 5 days prior to tumor implantation with a tumor cell suspension.
The tumor model used in these studies was BxPC-3 cell line, which was obtained from the ATCC (Manassas, Va.).
Treatments were initiated on DPI 9.
as §1, §2

MRI-H-254 tumors = system: MRI-H-254 tumors
Description: Female athymic nude mice (Harlan Sprague Dawley, Madison, Wis.) were utilized for all experiments. Animals were housed in ventilated rack caging with food and water ad libitum. The mice were acclimated for at least 5 days prior to tumor implantation with tumor fragments. The Vehicle Control group contained 11 mice, groups 2-6 contained 8 mice/group, and the rest of groups contained 9 mice/group.
This cell line was grown and implanted to the animals as described in Example 11.
Tumor measurements were determined as disclosed in Example 4. […] Treatments were initiated on DPI 17.
PM00104 was provided in the form of vials of lyophilized PM00104 powder which was reconstituted with water for injection.
as §1, §2
The definition and criteria for the evaluation of potentiation and the degree of additivity for the combination therapy were the same as those disclose in Example 4.

[1] = PM00104 0.9, 5-FU 50 (DPI 15) then 100 (DPI 22 & 29), irinotecan 20, doxorubicin 6 mg/kg/day
[2] = PM00104 0.90 IV, doxorubicin 6 IP, paclitaxel 12.5 IP mg/kg/day (G2, G5, G6, G7, G8)

Compound: O=c1[nH]cc(F)c(=O)[nH]1 [5-FU, 5-fluorouracil]
- % T/C on day 15 (Hs746T tumors; [1]): 102.3%
- % T/C on day 19 (Hs746T tumors; [1]): 96.4%
- % T/C on day 22 (Hs746T tumors; [1]): 88.0%
- % T/C on day 26 (Hs746T tumors; [1]): 93.4%
- % T/C on day 29 (Hs746T tumors; [1]): 94.5%
- % T/C on day 33 (Hs746T tumors; [1]): 95.3%
- % Inhibition (Hs746T tumors; day 15): −2.3%
- % Inhibition (Hs746T tumors; day 19): 3.6%
- % Inhibition (Hs746T tumors; day 22): 12.0%
- % Inhibition (Hs746T tumors; day 26): 6.6%
- % Inhibition (Hs746T tumors; day 29): 5.5%
- % Inhibition (Hs746T tumors; day 33): 4.7%

Compound: C#Cc1cccc(Nc2ncnc3cc(OCCOC)c(OCCOC)cc23)c1 [erlotinib]
- % Inhibition (BxPC-3 tumors; day 9, erlotinib 15 PO): 0.5%
- % T/C on day (BxPC-3 tumors; day 9, erlotinib 15 PO): 99.5%
- % Inhibition (BxPC-3 tumors; day 9, erlotinib 30 PO): −4.2%
- % T/C on day (BxPC-3 tumors; day 9, erlotinib 30 PO): 104.2%
- % Inhibition (BxPC-3 tumors; day 9, erlotinib 50 PO): −2.5%
- % T/C on day (BxPC-3 tumors; day 9, erlotinib 50 PO): 102.5%
- % Inhibition (BxPC-3 tumors; day 12, erlotinib 15 PO): 24.1%
- % T/C on day (BxPC-3 tumors; day 12, erlotinib 15 PO): 75.9%
- % Inhibition (BxPC-3 tumors; day 12, erlotinib 30 PO): 15.1%
- % T/C on day (BxPC-3 tumors; day 12, erlotinib 30 PO): 84.9%
- % Inhibition (BxPC-3 tumors; day 12, erlotinib 50 PO): 15.1%
- % T/C on day (BxPC-3 tumors; day 12, erlotinib 50 PO): 84.9%
- % Inhibition (BxPC-3 tumors; day 15, erlotinib 15 PO): 7.8%
- % T/C on day (BxPC-3 tumors; day 15, erlotinib 15 PO): 92.2%
- % Inhibition (BxPC-3 tumors; day 15, erlotinib 30 PO): −5.8%
- % T/C on day (BxPC-3 tumors; day 15, erlotinib 30 PO): 105.8%
- % Inhibition (BxPC-3 tumors; day 15, erlotinib 50 PO): −14.2%
- % T/C on day (BxPC-3 tumors; day 15, erlotinib 50 PO): 114.2%
- % Inhibition (BxPC-3 tumors; day 19, erlotinib 15 PO): 21.0%
- % T/C on day (BxPC-3 tumors; day 19, erlotinib 15 PO): 79.0%
- % Inhibition (BxPC-3 tumors; day 19, erlotinib 30 PO): 6.5%
- % T/C on day (BxPC-3 tumors; day 19, erlotinib 30 PO): 93.5%
- % Inhibition (BxPC-3 tumors; day 19, erlotinib 50 PO): −2.6%
- % T/C on day (BxPC-3 tumors; day 19, erlotinib 50 PO): 102.6%
- % Inhibition (BxPC-3 tumors; day 21, erlotinib 15 PO): 33.8%
- % T/C on day (BxPC-3 tumors; day 21, erlotinib 15 PO): 66.2%
- % Inhibition (BxPC-3 tumors; day 21, erlotinib 30 PO): 16.3%
- % T/C on day (BxPC-3 tumors; day 21, erlotinib 30 PO): 83.7%
- % Inhibition (BxPC-3 tumors; day 21, erlotinib 50 PO): 15.5%
- % T/C on day (BxPC-3 tumors; day 21, erlotinib 50 PO): 84.5%
- % Inhibition (BxPC-3 tumors; day 26, erlotinib 15 PO): 7.5%
- % T/C on day (BxPC-3 tumors; day 26, erlotinib 15 PO): 92.5%
- % Inhibition (BxPC-3 tumors; day 26, erlotinib 30 PO): −14.2%
- % T/C on day (BxPC-3 tumors; day 26, erlotinib 30 PO): 114.2%
- % Inhibition (BxPC-3 tumors; day 26, erlotinib 50 PO): 9.0%
- % T/C on day (BxPC-3 tumors; day 26, erlotinib 50 PO): 91.0%
- % Inhibition (BxPC-3 tumors; day 29, erlotinib 15 PO): 16.2%
- % T/C on day (BxPC-3 tumors; day 29, erlotinib 15 PO): 83.8%
- % Inhibition (BxPC-3 tumors; day 29, erlotinib 30 PO): 15.2%
- % T/C on day (BxPC-3 tumors; day 29, erlotinib 30 PO): 84.8%
- % Inhibition (BxPC-3 tumors; day 29, erlotinib 50 PO): 40.7%
- % T/C on day (BxPC-3 tumors; day 29, erlotinib 50 PO): 59.3%
- % Inhibition (BxPC-3 tumors; day 33, erlotinib 15 PO): 7.9%
- % T/C on day (BxPC-3 tumors; day 33, erlotinib 15 PO): 92.1%
- % Inhibition (BxPC-3 tumors; day 33, erlotinib 30 PO): 13.0%
- % T/C on day (BxPC-3 tumors; day 33, erlotinib 30 PO): 87.0%
- % Inhibition (BxPC-3 tumors; day 33, erlotinib 50 PO): 12.1%
- % T/C on day (BxPC-3 tumors; day 33, erlotinib 50 PO): 87.9%
- % Inhibition (BxPC-3 tumors; day 40, erlotinib 15 PO): 18.8%
- % T/C on day (BxPC-3 tumors; day 40, erlotinib 15 PO): 81.2%
- % Inhibition (BxPC-3 tumors; day 40, erlotinib 30 PO): 14.5%
- % T/C on day (BxPC-3 tumors; day 40, erlotinib 30 PO): 85.5%
- % Inhibition (BxPC-3 tumors; day 40, erlotinib 50 PO): 15.4%
- % T/C on day (BxPC-3 tumors; day 40, erlotinib 50 PO): 84.6%

Compound: CC(=O)O[C@H]1C(=O)[C@@]2(C)[C@H]([C@H](OC(=O)c3ccccc3)[C@]3(O)C[C@H](OC(=O)[C@H](O)[C@@H](NC(=O)c4ccccc4)c4ccccc4)C(C)=C1C3(C)C)[C@]1(OC(C)=O)CO[C@@H]1C[C@@H]2O [paclitaxel]
- % T/C on day 17 (MRI-H-254 tumors; [2]): 99.5%
- % T/C on day 20 (MRI-H-254 tumors; [2]): 86.2%
- % T/C on day 24 (MRI-H-254 tumors; [2]): 71.9%
- % T/C on day 27 (MRI-H-254 tumors; [2]): 77.2%
- % T/C on day 32 (MRI-H-254 tumors; [2]): 67.9%
- % T/C on day 35 (MRI-H-254 tumors; [2]): 52.3%
- % T/C on day 39 (MRI-H-254 tumors; [2]): 51.7%
- % T/C on day 47 (MRI-H-254 tumors; [2]): 69.0%
- % Inhibition (MRI-H-254 tumors; day 14, PM00104 0.23, doxorubicin 6, paclitaxel 12.5 mg/kg/day): 0.5%
- % Inhibition (MRI-H-254 tumors; day 14, PM00104 0.45, doxorubicin 6, paclitaxel 12.5 mg/kg/day): 0.5%
- % Inhibition (MRI-H-254 tumors; day 14, PM00104 0.90, paclitaxel 12.5 mg/kg/day): 0.5%
- % Inhibition (MRI-H-254 tumors; day 20, PM00104 0.23, doxorubicin 6, paclitaxel 12.5 mg/kg/day): 13.8%
- % Inhibition (MRI-H-254 tumors; day 20, PM00104 0.45, doxorubicin 6, paclitaxel 12.5 mg/kg/day): 13.8%
- % Inhibition (MRI-H-254 tumors; day 20, PM00104 0.90, paclitaxel 12.5 mg/kg/day): 13.8%
- % Inhibition (MRI-H-254 tumors; day 24, PM00104 0.23, doxorubicin 6, paclitaxel 12.5 mg/kg/day): 28.1%
- % Inhibition (MRI-H-254 tumors; day 24, PM00104 0.45, doxorubicin 6, paclitaxel 12.5 mg/kg/day): 28.1%
- % Inhibition (MRI-H-254 tumors; day 24, PM00104 0.90, paclitaxel 12.5 mg/kg/day): 28.1%
- % Inhibition (MRI-H-254 tumors; day 27, PM00104 0.23, doxorubicin 6, paclitaxel 12.5 mg/kg/day): 22.8%
- % Inhibition (MRI-H-254 tumors; day 27, PM00104 0.45, doxorubicin 6, paclitaxel 12.5 mg/kg/day): 22.8%
- % Inhibition (MRI-H-254 tumors; day 27, PM00104 0.90, paclitaxel 12.5 mg/kg/day): 22.8%
- % Inhibition (MRI-H-254 tumors; day 32, PM00104 0.23, doxorubicin 6, paclitaxel 12.5 mg/kg/day): 32.1%
- % Inhibition (MRI-H-254 tumors; day 32, PM00104 0.45, doxorubicin 6, paclitaxel 12.5 mg/kg/day): 32.1%
- % Inhibition (MRI-H-254 tumors; day 32, PM00104 0.90, paclitaxel 12.5 mg/kg/day): 32.1%
- % Inhibition (MRI-H-254 tumors; day 35, PM00104 0.23, doxorubicin 6, paclitaxel 12.5 mg/kg/day): 47.7%
- % Inhibition (MRI-H-254 tumors; day 35, PM00104 0.45, doxorubicin 6, paclitaxel 12.5 mg/kg/day): 47.7%
- % Inhibition (MRI-H-254 tumors; day 35, PM00104 0.90, paclitaxel 12.5 mg/kg/day): 47.7%
- % Inhibition (MRI-H-254 tumors; day 39, PM00104 0.23, doxorubicin 6, paclitaxel 12.5 mg/kg/day): 48.3%
- % Inhibition (MRI-H-254 tumors; day 39, PM00104 0.45, doxorubicin 6, paclitaxel 12.5 mg/kg/day): 48.3%
- % Inhibition (MRI-H-254 tumors; day 39, PM00104 0.90, paclitaxel 12.5 mg/kg/day): 48.3%
- % Inhibition (MRI-H-254 tumors; day 47, PM00104 0.23, doxorubicin 6, paclitaxel 12.5 mg/kg/day): 31.0%
- % Inhibition (MRI-H-254 tumors; day 47, PM00104 0.45, doxorubicin 6, paclitaxel 12.5 mg/kg/day): 31.0%
- % Inhibition (MRI-H-254 tumors; day 47, PM00104 0.90, paclitaxel 12.5 mg/kg/day): 31.0%
